{
  "source": "ChEMBL document CHEMBL3639170",
  "about": "“Carboxy isatin hydrazones and their esters as Shp2 inhibitors” (2014)",
  "molecular_target": "T1, Tyrosine-protein phosphatase non-receptor type 11 (Homo sapiens, UniProt Q06124)",
  "T1 sequence (Q06124 whole entry)": "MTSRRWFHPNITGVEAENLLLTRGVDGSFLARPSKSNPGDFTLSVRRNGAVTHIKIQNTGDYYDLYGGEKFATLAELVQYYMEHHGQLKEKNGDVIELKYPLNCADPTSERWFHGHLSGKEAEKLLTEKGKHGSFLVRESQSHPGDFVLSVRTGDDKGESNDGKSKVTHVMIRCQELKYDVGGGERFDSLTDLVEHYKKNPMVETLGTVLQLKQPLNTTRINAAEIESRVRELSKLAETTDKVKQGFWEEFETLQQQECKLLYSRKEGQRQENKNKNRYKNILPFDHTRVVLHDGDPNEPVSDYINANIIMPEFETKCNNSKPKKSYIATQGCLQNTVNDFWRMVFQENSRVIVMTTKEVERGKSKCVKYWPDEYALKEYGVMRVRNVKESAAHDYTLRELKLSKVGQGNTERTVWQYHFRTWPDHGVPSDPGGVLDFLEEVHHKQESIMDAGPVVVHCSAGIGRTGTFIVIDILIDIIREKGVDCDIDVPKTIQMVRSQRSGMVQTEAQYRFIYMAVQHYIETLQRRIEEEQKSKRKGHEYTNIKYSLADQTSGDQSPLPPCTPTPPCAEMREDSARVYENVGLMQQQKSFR",
  "assay": "Inhibition Assay: In vitro Shp2 PTP activity inhibition assay for determination of IC50 was performed with a recombinant GST-Shp2 PTP domain protein using 6,8-difluoro-4-methylumbelliferyl phosphate (DiFMUP, Invitrogen) as the substrate similar to that described previously (Chen, et al., Discovery of a novel shp2 protein tyrosine phosphatase inhibitor. Mol Pharmacol 2006; 70:562-70).",
  "data": [
    {"compound": "O=C(O)C(O)CC(=O)N1CCc2cc(S(=O)(=O)N3CCN(c4cccc(Cl)c4)CC3)ccc21", "note": "(stereo unspecified)", "values": [
      {"measurement": "IC50", "result": 8.2, "unit": "µM"}
    ]}
  ]
}
